The values that follow come from BindingDB's records for doi:10.1016/s0960-894x(02)00455-9 (Fukui Research Institute, 2002).

The target in test [1] is Nitric oxide synthase, inducible (Homo sapiens, UniProt P35228). The test is described as follows: ChEBML_89186. The source says:
Concentration required to inhibit Inducible nitric oxide synthase over expressed in A549 cells

In test [2] the target is T1, Nitric oxide synthase, endothelial (Homo sapiens, UniProt P29474).
T1 sequence (P29474 whole entry): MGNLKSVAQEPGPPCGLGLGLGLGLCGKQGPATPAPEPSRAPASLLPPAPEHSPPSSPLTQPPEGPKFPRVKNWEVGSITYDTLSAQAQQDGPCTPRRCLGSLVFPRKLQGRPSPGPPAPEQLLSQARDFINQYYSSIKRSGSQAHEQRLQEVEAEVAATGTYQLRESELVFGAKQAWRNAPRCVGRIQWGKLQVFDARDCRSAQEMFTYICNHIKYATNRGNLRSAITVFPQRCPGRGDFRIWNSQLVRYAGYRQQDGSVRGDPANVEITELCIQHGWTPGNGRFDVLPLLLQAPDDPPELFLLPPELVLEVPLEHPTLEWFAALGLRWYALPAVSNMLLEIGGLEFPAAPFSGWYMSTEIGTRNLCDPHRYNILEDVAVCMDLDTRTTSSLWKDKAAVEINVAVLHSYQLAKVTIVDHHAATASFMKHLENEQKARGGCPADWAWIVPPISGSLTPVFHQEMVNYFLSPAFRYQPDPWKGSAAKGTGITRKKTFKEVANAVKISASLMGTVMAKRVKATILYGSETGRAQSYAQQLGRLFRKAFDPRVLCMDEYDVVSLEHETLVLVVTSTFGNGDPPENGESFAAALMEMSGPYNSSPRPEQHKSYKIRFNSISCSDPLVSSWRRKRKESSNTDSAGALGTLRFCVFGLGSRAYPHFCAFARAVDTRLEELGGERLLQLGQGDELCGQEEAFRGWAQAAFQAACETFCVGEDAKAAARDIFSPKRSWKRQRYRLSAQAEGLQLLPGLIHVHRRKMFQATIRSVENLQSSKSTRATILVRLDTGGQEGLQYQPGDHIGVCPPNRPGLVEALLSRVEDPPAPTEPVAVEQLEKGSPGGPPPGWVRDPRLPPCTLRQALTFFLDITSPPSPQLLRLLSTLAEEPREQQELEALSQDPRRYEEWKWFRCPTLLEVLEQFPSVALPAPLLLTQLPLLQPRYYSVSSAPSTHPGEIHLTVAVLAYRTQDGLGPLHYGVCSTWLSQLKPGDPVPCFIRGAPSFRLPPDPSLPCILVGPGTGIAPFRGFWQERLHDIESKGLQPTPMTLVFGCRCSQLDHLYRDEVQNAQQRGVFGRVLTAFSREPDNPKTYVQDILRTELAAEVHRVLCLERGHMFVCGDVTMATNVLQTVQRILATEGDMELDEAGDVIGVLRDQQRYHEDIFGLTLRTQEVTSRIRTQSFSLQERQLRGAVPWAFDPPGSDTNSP
The test is described as follows: ChEBML_64984. The source says: Inhibition of human endothelial Nitric Oxide Synthase expressed in Sf-21 cells

Chain of Nitric oxide synthase, inducible (P35228 whole entry): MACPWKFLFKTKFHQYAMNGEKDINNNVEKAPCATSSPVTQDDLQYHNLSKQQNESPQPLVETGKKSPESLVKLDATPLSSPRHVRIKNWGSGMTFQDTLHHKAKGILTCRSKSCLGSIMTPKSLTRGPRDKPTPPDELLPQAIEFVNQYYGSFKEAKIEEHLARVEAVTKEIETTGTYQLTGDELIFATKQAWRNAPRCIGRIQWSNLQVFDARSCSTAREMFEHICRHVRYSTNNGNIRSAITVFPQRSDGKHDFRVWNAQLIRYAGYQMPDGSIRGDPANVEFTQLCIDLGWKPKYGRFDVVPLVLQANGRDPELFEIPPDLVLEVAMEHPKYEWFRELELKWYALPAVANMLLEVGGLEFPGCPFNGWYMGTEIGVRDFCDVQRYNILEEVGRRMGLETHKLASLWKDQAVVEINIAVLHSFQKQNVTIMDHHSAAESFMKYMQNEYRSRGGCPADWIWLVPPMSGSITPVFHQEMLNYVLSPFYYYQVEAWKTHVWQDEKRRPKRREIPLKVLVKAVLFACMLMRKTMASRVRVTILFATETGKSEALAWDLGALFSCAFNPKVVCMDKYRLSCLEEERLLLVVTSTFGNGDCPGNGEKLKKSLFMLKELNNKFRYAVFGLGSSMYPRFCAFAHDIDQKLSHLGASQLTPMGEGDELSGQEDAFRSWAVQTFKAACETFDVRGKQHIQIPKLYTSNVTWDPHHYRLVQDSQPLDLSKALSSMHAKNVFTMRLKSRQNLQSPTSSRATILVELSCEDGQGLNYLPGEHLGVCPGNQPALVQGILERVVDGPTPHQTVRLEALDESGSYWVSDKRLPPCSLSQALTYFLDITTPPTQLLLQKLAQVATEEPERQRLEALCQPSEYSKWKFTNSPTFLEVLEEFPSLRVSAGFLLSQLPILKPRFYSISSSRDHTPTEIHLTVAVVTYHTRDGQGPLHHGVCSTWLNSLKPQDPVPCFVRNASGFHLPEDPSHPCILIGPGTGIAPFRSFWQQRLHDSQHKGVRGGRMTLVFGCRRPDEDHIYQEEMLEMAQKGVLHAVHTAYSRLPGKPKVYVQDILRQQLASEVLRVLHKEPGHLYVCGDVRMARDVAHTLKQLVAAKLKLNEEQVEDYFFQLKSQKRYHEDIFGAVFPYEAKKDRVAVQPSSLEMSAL

On to `CC1=CC(N)=NCC1`, for which the IC50 in test [1] was determined as 700 nM; in test [2], 440 nM.

For orientation: IC50 means the concentration that inhibits the measured activity by half. Low values mean inhibition by little substance, high ones a need for much substance.
